Laboratory results as given in patent US8927717B1, “Thiochromeno[2,3-c]quinolin-12-one derivatives, preparation method and application thereof” (National Defense Medical Center, priority 2014, dated 2015).

Experiments:
Type in all cases: cell-based
[1] = test system: OVCAR-4; details: for Growth percent OVCAR-4: Ovarian cancer, 10^−5 molar, 48 hours, SRB
[2] = test system: SW-620; details: for Growth percent SW-620: Colon cancer, 10^−5 molar, 48 hours, SRB
[3] = test system: CAKI-1; details: for Growth percent CAKI-1: Renal cancer, 10^−5 molar, 48 hours, SRB
[4] = test system: MDA-MB-486; details: for Growth percent MDA-MB-486: Breast cancer, 10^−5 molar, 48 hours, SRB
[5] = test system: IGROV1; details: for Growth percent IGROV1: Ovarian cancer, 10^−5 molar, 48 hours, SRB
[6] = test system: HCC-2998; details: for Growth percent HCC-2998: Colon cancer, 10^−5 molar, 48 hours, SRB
[7] = test system: ACHN; details: for Growth percent ACHN: Renal cancer, 10^−5 molar, 48 hours, SRB
[8] = test system: M14; details: for Growth percent M14: Melanoma, 10^−5 molar, 48 hours, SRB
[9] = test system: NCI/ADR-RES; details: for Growth percent NCI/ADR-RES: Ovarian cancer, 10^−5 molar, 48 hours, SRB
[10] = test system: SF-295; details: for Growth percent SF-295: CNS cancer, 10^−5 molar, 48 hours, SRB
[11] = test system: HOP-92; details: Non-small cell lung cancer; 10^−5 molar; 48 hours; SRB
[12] = test system: OVCAR-3; details: for Growth percent OVCAR-3: Ovarian cancer, 10^−5 molar, 48 hours, SRB
[13] = test system: HCT-15; details: for Growth percent HCT-15: Colon cancer, 10^−5 molar, 48 hours, SRB
[14] = test system: HCT-116; details: for Growth percent HCT-116: Colon cancer, 10^−5 molar, 48 hours, SRB
[15] = test system: SR; details: for Growth percent SR: Leukemia, 10^−5 molar, 48 hours, SRB
[16] = test system: T-47D; details: Breast cancer; 10^−5 molar; 48 hours; SRB
[17] = test system: UACC-257; details: for Growth percent UACC-257: Melanoma, 10^−5 molar, 48 hours, SRB
[18] = test system: SF-539; details: for Growth percent SF-539: CNS cancer, 10^−5 molar, 48 hours, SRB
[19] = test system: SN12C; details: for Growth percent SN12C: Renal cancer, 10^−5 molar, 48 hours, SRB
[20] = test system: SK-MEL-2; details: for Growth percent SK-MEL-2: Melanoma, 10^−5 molar, 48 hours, SRB
[21] = Homo sapiens, SW-620, five dose
[22] = Homo sapiens, HCC-2998, five dose
[23] = Homo sapiens, SF-295, five dose
[24] = Homo sapiens, HCT-15, five dose
[25] = Homo sapiens, HCT-116, five dose
[26] = Homo sapiens, SF-539, five dose
[27] = Homo sapiens, SK-Mel-2, five dose

SMILES: CCNc1nc2ccccc2c2c(=O)c3cc(Cl)ccc3sc12 [Compound N2, 10-Chloro-6-ethylamino-12H-thiochromeno[2,3-c]quinolin-12-one]
- GI50 ([1]; Homo sapiens, OVCAR-4, five dose): > 100 µM
- CC50 ([1]; Homo sapiens, OVCAR-4, five dose, read-out: LC50 (the source's name)): > 100 µM
- TGI ([1]; OVCAR-4, five dose): >100 µM
- Growth percent OVCAR-4 [1]: 23.19%
- Growth percent SW-620 [2]: 84.65%
- GI50 [2, 21]: > 100 µM
- LC50 [2, 21]: > 100 µM
- TGI ([2]; SW-620, five dose): >100 µM
- TGI ([3]; CAKI-1, five dose): >100 µM
- GI50 ([3]; Homo sapiens, CAKI-1, five dose): 26.4 µM
- CC50 ([3]; Homo sapiens, CAKI-1, five dose, read-out: LC50 (the source's name)): > 100 µM
- Growth percent CAKI-1 [3]: 72.44%
- GI50 ([4]; 60 cell, MDA-MB-486, five dose): 0.04 µM
- CC50 ([4]; 60 cell, MDA-MB-486, five dose, read-out: LC50 (the source's name)): > 100 µM
- Growth percent MDA-MB-486 [4]: 26.29%
- TGI ([4]; MDA-MB-486, five dose): >100 µM
- GI50 ([5]; Homo sapiens, IGROV-1, IGROV1, five dose): 11.9 µM
- CC50 ([5]; Homo sapiens, IGROV-1, IGROV1, five dose, read-out: LC50 (the source's name)): > 100 µM
- TGI ([5]; IGROV1, five dose): 54.40 µM
- Growth percent IGROV1 [5]: 59.26%
- Growth percent HCC-2998 [6]: 98.02%
- TGI ([6]; HCC-2998, five dose): >100 µM
- GI50 [6, 22]: > 100 µM
- LC50 [6, 22]: > 100 µM
- TGI ([7]; ACHN, five dose): >100 µM
- GI50 ([7]; Homo sapiens, ACHN, five dose): 8.66 µM
- CC50 ([7]; Homo sapiens, ACHN, five dose, read-out: LC50 (the source's name)): > 100 µM
- Growth percent ACHN [7]: 43.77%
- GI50 ([8]; Homo sapiens, M14, five dose): > 100 µM
- LC50 ([8]; Homo sapiens, M14, five dose): > 100 µM
- TGI ([8]; M14, five dose): >100 µM
- Growth percent M14 [8]: 91.72%
- GI50 ([9]; Homo sapiens, NCI/ADR-RES, five dose): 33.5 µM
- CC50 ([9]; Homo sapiens, NCI/ADR-RES, five dose, read-out: LC50 (the source's name)): > 100 µM
- TGI ([9]; NCI/ADR-RES, five dose): >100 µM
- Growth percent NCI/ADR-RES [9]: 88.61%
- Growth percent SF-295 [10]: 69.49%
- GI50 [10, 23]: 12.2 µM
- LC50 [10, 23]: > 100 µM
- TGI ([10]; SF-295, five dose): 35.20 µM
- Growth percent HOP-92 [11]: −0.07%
- GI50 ([12]; Homo sapiens, OVCAR-3, five dose): 52.4 µM
- CC50 ([12]; Homo sapiens, OVCAR-3, five dose, read-out: LC50 (the source's name)): > 100 µM
- TGI ([12]; OVCAR-3, five dose): >100 µM
- Growth percent OVCAR-3 [12]: 76.51%
- Growth percent HCT-15 [13]: 79.72%
- TGI ([13]; HCT-15, five dose): >100 µM
- GI50 [13, 24]: > 100 µM
- LC50 [13, 24]: > 100 µM
- Growth percent HCT-116 [14]: 48.13%
- TGI ([14]; HCT-116, five dose): >100 µM
- GI50 [14, 25]: 6.31 µM
- LC50 (concentration killing 50% of cells) [14, 25]: > 100 µM
- GI50 ([15]; Homo sapiens, SR, five dose): > 100 µM
- LC50 (50% lethal concentration) ([15]; Homo sapiens, SR, five dose): > 100 µM
- Growth percent SR [15]: 84.32%
- TGI ([15]; SR, five dose): >100 µM
- Growth percent T-47D [16]: 38.28%
- GI50 ([17]; Homo sapiens, UACC-257, five dose): > 100 µM
- CC50 ([17]; Homo sapiens, UACC-257, five dose, read-out: LC50 (the source's name)): > 100 µM
- Growth percent UACC-257 [17]: 75.21%
- TGI ([17]; UACC-257, five dose): >100 µM
- Growth percent SF-539 [18]: 60.35%
- GI50 [18, 26]: 10.1 µM
- LC50 [18, 26]: > 100 µM
- TGI ([18]; SF-539, five dose): 58.50 µM
- GI50 ([19]; Homo sapiens, SN12C, five dose): 75.3 µM
- CC50 ([19]; Homo sapiens, SN12C, five dose, read-out: LC50 (the source's name)): > 100 µM
- Growth percent SN12C [19]: 84.57%
- TGI ([19]; SN12C, five dose): >100 µM
- GI50 [20, 27]: 16.3 µM
- LC50 [20, 27]: > 100 µM
- Growth percent SK-MEL-2 [20]: 76.15%
- TGI ([20]; SK-Mel-2, five dose): 43.2 µM

SMILES: O=c1c2cc(Cl)ccc2sc2c(NCCO)nc3ccccc3c12 [Compound N9, 10-Chloro-6-(2-ethanolamino)-12H-thiochromeno[2,3-c]quinolin-12-one]
- Growth percent OVCAR-4 [1]: 102.67%
- Growth percent SW-620 [2]: 97.18%
- Growth percent CAKI-1 [3]: 89.29%
- Growth percent MDA-MB-486 [4]: 39.59%
- Growth percent IGROV1 [5]: 88.51%
- Growth percent HCC-2998 [6]: 101.55%
- Growth percent ACHN [7]: 82.25%
- Growth percent M14 [8]: 107.09%
- Growth percent NCI/ADR-RES [9]: 91.54%
- Growth percent SF-295 [10]: 92.50%
- Growth percent HOP-92 [11]: 63.17%
- Growth percent OVCAR-3 [12]: 103.35%
- Growth percent HCT-15 [13]: 78.61%
- Growth percent HCT-116 [14]: 93.62%
- Growth percent SR [15]: 60.44%
- Growth percent T-47D [16]: 74.45%
- Growth percent UACC-257 [17]: 89.33%
- Growth percent SF-539 [18]: 90.56%
- Growth percent SN12C [19]: 92.52%
- Growth percent SK-MEL-2 [20]: 86.80%
